Results as given in the supplement of paper PMC10307832.

Assays:
Assay in all cases: relative viability (nuclei count vs DMSO), 5 days (fraction); higher = more cells survive
EHT 1864 + Phenformin = compound: C1COCCN1CC2=CC(=O)C(=CO2)OCCCCCSC3=C4C=CC(=CC4=NC=C3)C(F)(F)F [EHT 1864] + N=C(N)NC(=N)NCCc1ccccc1 [Phenformin] (partner 250 µM)
Procedure, shortened: (§1)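 Lung cancer cell lines in 1536-well plates were dosed by pin tool the day after seeding, either with one drug alone or with a fixed anchor-drug dose plus five library-drug doses (not always all listed) in √10 steps. After 5 days, cells were fixed and their nuclei stained in one step (final 0.05% Triton X-100, 1% formaldehyde, 1 ug/ml Hoechst), then counted on 4× images. Relative viability is the nuclei count in treated wells divided by that in vehicle wells. Values are medians of duplicate plates.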

EHT 1864 + Navitoclax = compound: C1COCCN1CC2=CC(=O)C(=CO2)OCCCCCSC3=C4C=CC(=CC4=NC=C3)C(F)(F)F [EHT 1864] + CC1(C)CCC(c2ccc(Cl)cc2)=C(CN2CCN(c3ccc(C(=O)NS(=O)(=O)c4ccc(N[C@H](CCN5CCOCC5)CSc5ccccc5)c(S(=O)(=O)C(F)(F)F)c4)cc3)CC2)C1 [Navitoclax] (partner 0.5 µM)
Procedure, shortened: as §1

EHT 1864 + Pemetrexed = compound: C1COCCN1CC2=CC(=O)C(=CO2)OCCCCCSC3=C4C=CC(=CC4=NC=C3)C(F)(F)F [EHT 1864] + Nc1nc2[nH]cc(CCc3ccc(C(=O)N[C@@H](CCC(=O)O)C(=O)O)cc3)c2c(=O)[nH]1 [Pemetrexed] (partner 0.2 µM)
Procedure, shortened: as §1

EHT 1864 + Trametinib = compound: C1COCCN1CC2=CC(=O)C(=CO2)OCCCCCSC3=C4C=CC(=CC4=NC=C3)C(F)(F)F [EHT 1864] + CC(=O)Nc1cccc(-n2c(=O)n(C3CC3)c(=O)c3c(Nc4ccc(I)cc4F)n(C)c(=O)c(C)c32)c1 [Trametinib] (partner 0.02 µM)
Procedure, shortened: as §1

Cell Line | relative viability (EHT 1864 + Phenformin; first compound 0.04 µM) | relative viability (EHT 1864 + Phenformin; first compound 0.1265 µM) | relative viability (EHT 1864 + Phenformin; first compound 0.4 µM) | relative viability (EHT 1864 + Phenformin; first compound 1.265 µM) | relative viability (EHT 1864 + Phenformin; first compound 4 µM) | relative viability (EHT 1864 + Navitoclax; first compound 0.04 µM) | relative viability (EHT 1864 + Navitoclax; first compound 0.1265 µM) | relative viability (EHT 1864 + Navitoclax; first compound 0.4 µM) | relative viability (EHT 1864 + Navitoclax; first compound 1.265 µM) | relative viability (EHT 1864 + Navitoclax; first compound 4 µM) | relative viability (EHT 1864 + Pemetrexed; first compound 0.04 µM) | relative viability (EHT 1864 + Pemetrexed; first compound 0.1265 µM) | relative viability (EHT 1864 + Pemetrexed; first compound 0.4 µM) | relative viability (EHT 1864 + Pemetrexed; first compound 1.265 µM) | relative viability (EHT 1864 + Pemetrexed; first compound 4 µM) | relative viability (EHT 1864 + Trametinib; first compound 0.04 µM) | relative viability (EHT 1864 + Trametinib; first compound 0.1265 µM) | relative viability (EHT 1864 + Trametinib; first compound 0.4 µM) | relative viability (EHT 1864 + Trametinib; first compound 1.265 µM) | relative viability (EHT 1864 + Trametinib; first compound 4 µM)
NCI-H1395 | 0.518 | 0.422 | 0.45 | 0.474 | 0.431 | 1.12 | 1.02 | 1.18 | 0.967 | 0.875 | 0.923 | 0.73 | 0.89 | 0.805 | 0.915 | 1.07 | 0.908 | 0.977 | 0.978 | 1.08
NCI-H1648 |  |  |  |  |  |  |  |  |  |  | 0.827 |  | 0.673 | 0.655 | 0.726 | 0.545 |  | 0.44 | 0.4 | 0.607
NCI-H460 | 0.508 | 0.443 | 0.513 | 0.518 | 0.568 | 1.11 | 1.16 | 1.03 | 1.16 | 1.02 |  | 0.0604 | 0.0667 | 0.0607 | 0.0677 |  | 0.108 | 0.222 | 0.133 | 0.134
A549 | 0.267 | 0.14 | 0.186 | 0.0995 | 0.168 | 1.16 | 1.2 | 0.952 | 1.18 | 0.912 |  |  |  |  |  |  |  |  |  | 
IA-LM |  |  |  |  |  | 0.697 | 0.653 | 0.775 | 0.803 | 0.569 |  |  |  |  |  |  |  |  |  | 
EKVX | 0.23 | 0.235 | 0.223 | 0.252 | 0.245 | 0.937 | 0.906 | 0.88 | 0.857 | 1.03 | 0.362 | 0.381 | 0.404 | 0.34 | 0.495 | 0.412 | 0.35 | 0.35 | 0.367 | 0.28
ChaGo-K-1 | 0.497 | 0.427 | 0.544 | 0.48 | 0.463 | 1.07 | 0.938 | 0.802 |  | 1.07 | 0.261 | 0.27 | 0.25 | 0.264 | 0.256 | 0.839 | 0.85 | 0.89 | 0.911 | 0.871
NCI-H1755 | 0.607 | 0.564 | 0.594 | 0.612 | 0.629 | 1.02 | 0.927 | 0.94 | 0.979 | 0.869 | 0.477 | 0.376 | 0.389 | 0.468 | 0.388 | 0.732 | 0.782 | 0.768 | 0.701 | 0.726
NCI-H2228 | 0.37 | 0.232 | 0.345 | 0.288 | 0.52 | 1.08 | 0.847 | 0.755 | 0.836 | 0.827 | 0.323 | 0.341 | 0.318 |  | 0.34 | 0.553 | 0.566 | 0.389 |  | 0.533
NCI-H2087 | 0.453 |  | 0.462 | 0.434 | 0.518 | 0.86 | 0.894 | 0.865 | 0.829 | 0.743 | 0.691 |  | 0.596 | 0.642 | 0.657 | 0.188 |  | 0.211 | 0.167 | 0.215
